In patent US20070098802A1, “Organic nanoparticles and associated methods” (priority 2005, published 2007):

Experiment: Nanoparticle size by light scattering and scanning electron microscopy
Format: physicochemical
Conditions: 0.5% (w/v), 5 mg/ml glyburide in 70% ethanol and 30% chloroform by weight; water added until clouding
Method: A 0.5% (w/v) mixture of 5 mg/ml of glyburide in 70% ethanol and 30% chloroform by weight is prepared. To this mixture, water is added until clouding is observed at which point the emulsion has formed. Light scattering and scanning electron microscopy show the resulting nanoparticle size is on average about 500 nm. A few large nanoparticles may be observed of up to 1 to 3 μm.

- resulting nanoparticle size, on average: about 500 nm
Compound: COc1ccc(Cl)cc1C(=O)NCCc1ccc(S(=O)(=O)NC(=O)NC2CCCCC2)cc1 [glyburide]
